Experimental data published in ChEMBL document CHEMBL1201862, “PubChem BioAssay data set” (2004).
Calls of active or inactive are those of the source.

How the values were obtained:
Assay type in all cases: functional
[1] = target: Cyclin-dependent kinase 7 (Homo sapiens, UniProt P50613);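 also: value comes from a kinome-wide kinase profiling panel in which CDK7 is one member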
[2] = target: cAMP-dependent protein kinase catalytic subunit alpha (Homo sapiens, UniProt P17612)
[3] = target: Cyclin-dependent kinase 9 (Homo sapiens, UniProt P50750);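 also: value from the CDK9 entry of a kinome-spanning kinase panel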
Chain of Cyclin-dependent kinase 9 (P50750 whole entry): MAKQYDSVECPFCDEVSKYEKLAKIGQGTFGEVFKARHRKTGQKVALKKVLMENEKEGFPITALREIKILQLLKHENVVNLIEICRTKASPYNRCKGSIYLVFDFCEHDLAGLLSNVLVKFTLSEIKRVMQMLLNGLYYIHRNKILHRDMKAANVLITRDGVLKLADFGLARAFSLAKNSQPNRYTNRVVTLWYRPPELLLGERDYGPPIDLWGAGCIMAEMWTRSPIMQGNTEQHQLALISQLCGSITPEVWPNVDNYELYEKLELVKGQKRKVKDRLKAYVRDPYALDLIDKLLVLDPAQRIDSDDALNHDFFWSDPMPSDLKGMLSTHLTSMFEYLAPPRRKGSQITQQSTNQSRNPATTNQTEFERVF

[4] = target: T1, Serine/threonine-protein kinase TAO1 (Homo sapiens, UniProt Q7L7X3)
T1 sequence (Q7L7X3 whole entry): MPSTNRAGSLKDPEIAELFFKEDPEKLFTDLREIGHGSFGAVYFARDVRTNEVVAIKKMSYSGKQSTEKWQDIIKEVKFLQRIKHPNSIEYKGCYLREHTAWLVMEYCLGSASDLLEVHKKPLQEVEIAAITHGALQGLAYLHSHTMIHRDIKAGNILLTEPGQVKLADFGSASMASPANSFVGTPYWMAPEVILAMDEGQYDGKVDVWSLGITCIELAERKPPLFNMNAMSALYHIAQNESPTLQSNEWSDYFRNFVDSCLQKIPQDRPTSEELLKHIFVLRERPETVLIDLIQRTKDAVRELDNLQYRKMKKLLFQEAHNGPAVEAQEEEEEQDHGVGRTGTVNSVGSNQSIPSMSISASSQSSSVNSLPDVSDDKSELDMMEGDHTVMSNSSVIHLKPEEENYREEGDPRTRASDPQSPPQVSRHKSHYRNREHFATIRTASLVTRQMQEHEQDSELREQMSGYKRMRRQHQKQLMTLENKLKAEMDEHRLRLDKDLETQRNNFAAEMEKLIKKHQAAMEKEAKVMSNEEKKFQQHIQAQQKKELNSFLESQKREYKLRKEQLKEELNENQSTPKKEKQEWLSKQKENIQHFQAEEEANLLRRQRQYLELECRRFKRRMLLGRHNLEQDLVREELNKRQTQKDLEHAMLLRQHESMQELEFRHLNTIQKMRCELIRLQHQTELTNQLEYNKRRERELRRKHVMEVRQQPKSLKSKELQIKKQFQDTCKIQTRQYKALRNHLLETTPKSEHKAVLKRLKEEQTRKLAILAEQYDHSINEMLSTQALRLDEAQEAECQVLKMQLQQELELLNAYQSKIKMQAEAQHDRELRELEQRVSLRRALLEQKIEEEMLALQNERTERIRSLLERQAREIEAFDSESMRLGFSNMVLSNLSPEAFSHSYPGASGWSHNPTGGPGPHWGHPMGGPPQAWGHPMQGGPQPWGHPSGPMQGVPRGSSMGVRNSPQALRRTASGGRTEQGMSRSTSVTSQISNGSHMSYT

[5] = target: T2, Tyrosine-protein kinase receptor TYRO3 (Homo sapiens, UniProt Q06418);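 also: TYRO3 value obtained as one member of a kinome-wide profiling panel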
T2 sequence (Q06418 whole entry): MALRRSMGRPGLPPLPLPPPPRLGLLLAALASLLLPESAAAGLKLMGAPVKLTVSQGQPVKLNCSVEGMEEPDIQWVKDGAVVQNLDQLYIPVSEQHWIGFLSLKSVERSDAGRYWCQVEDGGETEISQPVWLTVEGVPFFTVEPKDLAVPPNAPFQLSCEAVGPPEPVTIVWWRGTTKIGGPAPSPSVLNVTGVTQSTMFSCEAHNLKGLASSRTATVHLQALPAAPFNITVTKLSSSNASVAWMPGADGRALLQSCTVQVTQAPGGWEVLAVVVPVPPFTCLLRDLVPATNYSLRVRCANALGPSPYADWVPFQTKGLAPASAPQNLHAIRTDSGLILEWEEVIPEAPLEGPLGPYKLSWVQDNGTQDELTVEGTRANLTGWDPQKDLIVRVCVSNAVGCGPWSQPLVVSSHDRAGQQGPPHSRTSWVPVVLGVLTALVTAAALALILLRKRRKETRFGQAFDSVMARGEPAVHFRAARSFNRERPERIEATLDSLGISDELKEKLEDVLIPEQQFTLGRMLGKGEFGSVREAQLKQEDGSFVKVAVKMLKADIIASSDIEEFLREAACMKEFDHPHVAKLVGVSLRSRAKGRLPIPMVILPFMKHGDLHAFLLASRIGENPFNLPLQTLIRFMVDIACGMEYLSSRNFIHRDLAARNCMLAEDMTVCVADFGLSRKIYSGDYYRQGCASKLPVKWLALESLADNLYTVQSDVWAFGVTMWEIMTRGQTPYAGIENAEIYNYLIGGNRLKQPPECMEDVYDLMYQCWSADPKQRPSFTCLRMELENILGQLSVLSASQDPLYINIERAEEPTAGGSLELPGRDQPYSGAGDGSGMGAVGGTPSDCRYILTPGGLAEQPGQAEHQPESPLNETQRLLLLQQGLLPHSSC

[6] = target: Death-associated protein kinase 3 (Homo sapiens, UniProt O43293);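 also: measured as one member of a kinome-wide profiling panel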
Chain of Death-associated protein kinase 3 (O43293 whole entry): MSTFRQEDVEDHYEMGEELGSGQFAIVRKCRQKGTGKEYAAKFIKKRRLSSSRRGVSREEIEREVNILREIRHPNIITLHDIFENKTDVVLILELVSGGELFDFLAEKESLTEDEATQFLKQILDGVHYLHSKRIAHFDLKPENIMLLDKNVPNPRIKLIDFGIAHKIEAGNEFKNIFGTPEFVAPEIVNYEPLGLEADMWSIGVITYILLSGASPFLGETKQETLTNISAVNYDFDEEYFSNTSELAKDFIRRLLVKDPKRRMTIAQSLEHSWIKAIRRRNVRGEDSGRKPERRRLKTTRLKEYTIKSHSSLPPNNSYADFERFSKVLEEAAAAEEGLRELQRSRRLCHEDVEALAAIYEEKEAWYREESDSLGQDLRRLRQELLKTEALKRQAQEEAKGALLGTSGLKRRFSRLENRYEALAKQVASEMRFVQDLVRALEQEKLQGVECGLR

[7] = target: Ribosomal protein S6 kinase alpha-3 (Homo sapiens, UniProt P51812);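 also: measured within a kinome-wide profiling panel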
Chain of Ribosomal protein S6 kinase alpha-3 (P51812 whole entry): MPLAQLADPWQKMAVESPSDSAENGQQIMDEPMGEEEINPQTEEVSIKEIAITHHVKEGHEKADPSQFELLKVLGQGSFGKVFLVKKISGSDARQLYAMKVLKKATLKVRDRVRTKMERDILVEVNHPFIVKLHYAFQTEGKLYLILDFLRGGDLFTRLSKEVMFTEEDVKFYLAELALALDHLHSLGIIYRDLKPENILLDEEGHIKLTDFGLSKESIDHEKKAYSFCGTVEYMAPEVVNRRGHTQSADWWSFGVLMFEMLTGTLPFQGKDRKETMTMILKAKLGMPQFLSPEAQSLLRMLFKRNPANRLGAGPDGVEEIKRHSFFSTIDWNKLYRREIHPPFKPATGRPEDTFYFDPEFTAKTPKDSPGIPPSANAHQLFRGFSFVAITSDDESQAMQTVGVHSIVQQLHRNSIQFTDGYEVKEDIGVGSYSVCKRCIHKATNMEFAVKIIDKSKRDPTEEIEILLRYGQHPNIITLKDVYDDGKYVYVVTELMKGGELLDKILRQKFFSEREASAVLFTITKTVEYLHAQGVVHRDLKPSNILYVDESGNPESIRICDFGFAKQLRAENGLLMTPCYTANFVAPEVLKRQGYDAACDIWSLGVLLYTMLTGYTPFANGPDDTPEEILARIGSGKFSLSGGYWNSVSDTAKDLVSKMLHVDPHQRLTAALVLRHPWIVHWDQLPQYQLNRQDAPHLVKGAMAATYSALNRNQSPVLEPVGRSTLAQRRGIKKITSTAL

[8] = target: Glycogen synthase kinase-3 alpha (Homo sapiens, UniProt P49840);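 also: GSK3A result taken from a broad kinome-wide kinase panel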
Chain of Glycogen synthase kinase-3 alpha (P49840 whole entry): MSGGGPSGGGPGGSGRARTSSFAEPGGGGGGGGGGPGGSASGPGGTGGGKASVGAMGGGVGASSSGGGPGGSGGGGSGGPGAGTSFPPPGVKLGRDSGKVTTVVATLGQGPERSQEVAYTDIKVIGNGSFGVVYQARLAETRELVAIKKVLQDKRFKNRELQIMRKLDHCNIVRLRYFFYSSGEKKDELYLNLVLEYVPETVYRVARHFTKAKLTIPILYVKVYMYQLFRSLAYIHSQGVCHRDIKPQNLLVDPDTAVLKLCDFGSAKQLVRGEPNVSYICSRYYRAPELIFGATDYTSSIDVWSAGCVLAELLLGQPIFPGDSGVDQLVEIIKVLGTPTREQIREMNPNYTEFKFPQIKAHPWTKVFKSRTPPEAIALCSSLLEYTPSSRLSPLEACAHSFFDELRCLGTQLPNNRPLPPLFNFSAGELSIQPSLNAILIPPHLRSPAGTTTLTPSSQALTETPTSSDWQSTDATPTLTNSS

Chain of Cyclin-dependent kinase 7 (P50613 whole entry): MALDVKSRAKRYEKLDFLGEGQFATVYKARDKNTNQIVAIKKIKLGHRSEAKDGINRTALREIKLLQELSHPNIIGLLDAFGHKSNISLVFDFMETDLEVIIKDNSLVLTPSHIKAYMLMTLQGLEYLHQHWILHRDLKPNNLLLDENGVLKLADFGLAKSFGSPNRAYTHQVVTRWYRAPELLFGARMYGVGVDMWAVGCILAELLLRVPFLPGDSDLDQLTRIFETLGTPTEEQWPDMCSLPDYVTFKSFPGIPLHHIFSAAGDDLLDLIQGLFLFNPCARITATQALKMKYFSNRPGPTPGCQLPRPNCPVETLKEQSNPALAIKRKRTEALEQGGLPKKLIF

SMILES | Ki [1] | Ki [2] | Ki [3] | Ki [4] | Ki [5] | Ki [6] | Ki [7] | Ki [8]
COc1cccc(C(C)NC(=O)c2sc(-c3ccncc3)nc2C)c1 (centres undefined) | > 3.98 µM (inactive) | > 1.26 µM (inactive) | > 1.58 µM (inactive) | > 6.31 µM (inactive) | > 3.16 µM (inactive) | > 5.01 µM (inactive) | > 3.98 µM (inactive) | > 3.98 µM (inactive)
CCCCC(=O)Nc1cc(-c2c[nH]c3ncccc23)cc(Cl)n1 | > 3.98 µM (inactive) | 0.316 µM (active) | > 1.58 µM (inactive) | > 6.31 µM (inactive) | > 3.16 µM (inactive) | > 3.16 µM (inactive) | > 3.98 µM (inactive) | > 3.98 µM (inactive)
Oc1ccc(-c2nc(-c3ccncc3)c(-c3ccc(F)cc3)[nH]2)cc1 [SB-202190] | > 3.98 µM (inactive) | 1 µM (active) | > 1.58 µM (inactive) | > 6.31 µM (inactive) | > 3.16 µM (inactive) | > 5.01 µM (inactive) | > 3.98 µM (inactive) | > 3.98 µM (inactive)
